{
  "source": "patent US20210069295A1",
  "about": "“GALECTINS CONTROL MTOR IN RESPONSE TO ENDOMEMBRANE DAMAGE AND PROVIDE A MECHANISM AND TARGET FOR THE TREATMENT OF AUTOPHAGY-RELATED DISEASES” (STC. UNM, priority 2017, published 2021)",
  "assay_type_in_all_cases": "cell-based",
  "key": {"APEX2-Gal8": {"test_system": "APEX2-Gal8", "test": "APEX2-Gal8 proximity biotinylation LC/MS/MS proteomic analysis in HEK293T cells", "conditions": "100 μM GPN 1 h vs full medium", "method": "HEK293T cells transfected with pJJiaDEST-APEX2 or pJJiaDEST-APEX2-Gal8 were incubated with 100 μM GPN (Cayman Chemicals) in full medium for 1 h (confluence of cells remained at 70-80%). Cells were next incubated in 500 μM biotin-phenol (AdipoGen) in full medium for the last 30 min of GPN incubation. A 1 min pulse with 1 mM H2O2 at room temperature was stopped with quenching buffer (10 mM sodium ascorbate, 10 mM sodium azide and 5 mM Trolox in Dulbecco's Phosphate Buffered Saline (DPBS)). All samples were washed twice with quenching buffer, and twice with DPBS.\nFor LC-MS/MS analysis, cell pellets were lysed in 500 μL ice-cold lysis buffer (6 M urea, 0.3 M Nacl, 1 mM EDTA, 1 mM EGTA, 10 mM sodium ascorbate, 10 mM sodium azide, 5 mM Trolox, 1% glycerol and 25 mm Tris/HCl [PH 7.5]) for 30 min by gentle pipetting. Lysates were clarified by centrifugation and protein concentrations determined as above. Streptavidin-coated magnetic beads (Pierce) were washed with lysis buffer. 3 mg of each sample was mixed with 100 μL of streptavidin bead. The suspensions were gently rotated at 4° C. for overnight to bind biotinylated proteins. The flowthrough after enrichment was removed and the beads were washed in sequence with 1 mL IP buffer (150 mM NaCl, 10 mM Tris-HCl pH8.0, 1 mM EDTA, 1 mM EGTA, 1% Triton X-100) twice; 1 mL 1M KCl; 1 mL of 50 mM Na2CO3; 1 mL 2M Urea in 20 mM 1Tris HCl pH8; 1 mL IP buffer. Biotinylated proteins were eluted, 5-10% of the sample processed for Western Blot and 90-95% of the sample processed for mass spectrometry.\nDigested peptides were analyzed by LC-MS/MS on a Thermo Scientific Q Exactive Plus Orbitrap Mass spectrometer in conjunction Proxeon Easy-nLC II HPLC (Thermo Scientific) and Proxeon nanospray source. […]\nTandem mass spectra were extracted by Proteome Discoverer version 2.2. […] All MS/MS samples were analyzed using Sequest-HT (XCorr Only)(Thermo Fisher Scientific, San Jose, Calif., USA; in Proteome Discoverer 2.2.0.388). […] Precursor intensity was determined using Proteome Discoverer 2.2 using the Minor Feature detector with the default options. […]"}, "Gal8": {"test_system": "Gal8", "test": "Immunoprecipitation of endogenous Gal8 complexes in THP-1 cells", "conditions": "100 μM GPN 1 h", "method": "(A) Analysis of the puncta formation of galectins in response to GPN. HeLa cells overexpressing YFP-fused with the indicated galectins were treated with 100 μM GPN or without (Ctrl) in full medium for 1 h and galectin puncta were quantified by HC. […] White masks, algorithm defined cell boundaries (primary objects); green masks, computer-identified galectins puncta (target objects). Data, means±SEM, n≥3 independent experiments (500 primary objects counted per well; ≥5 wells/sample per each experiment); *p<0.05, **p<0.01, † p≥0.05, ANOVA. (B) Immunoprecipitation analysis of the interactions between galectins and mTOR or RagA GTPase. HEK293T cells overexpressing FLAG-tagged galectins were subjected to anti-FLAG immunoprecipitation followed by immunoblotting for endogenous mTOR or RagA. (C) Immunoprecipitation analysis of interactions between Gal8 and mTOR protein complexes in response to GPN treatment. THP-1 cells not treated or treated with 100 μM GPN in full medium for 1 h were subjected to immunoprecipitation with anti-Gal8 antibody, followed by immunoblotting for endogenous RagA, p14, mTOR or Raptor. (D) Analysis of the proximity of Gal8 to mTOR and other proteins in mTOR complexes in response to GPN. Biotinylated proteins from HEK293T cell expressing APEX2-vector or APEX2-Gal8, after GPN and biotin phenol (BP) treatment were affinity-enriched by binding to streptavidin-beads, and samples were analyzed by immunoblotting analysis for endogenous RagA, p14, mTOR or Raptor. Data, means±SEM, (n=3), **p<0.01, ANOVA. (E) Immunoprecipitation analysis of the interactions between Gal8 and RagA GTPase and its mutants. Lysates of HEK293T cells overexpressing FLAG-Gal8 and HA-tagged RagA proteins (RagAWT, RagAT21L or RagAQ66L) were subjected to anti-FLAG immunoprecipitation, followed by immunoblotting for HA-tagged RagA proteins. (F) Immunoprecipitation analysis of the interactions between Gal8 and RagC GTPase and its mutants. […]"}, "AMPK": {"test_system": "AMPK", "test": "AMPK activation by immunoblotting of phosphorylated AMPKα, ACC and ULK1 in HEK293A cells"}},
  "note": "Peptide text beside a SMILES is read from it.",
  "data": [
    {"compound": "NCC(=O)N[C@@H](Cc1ccccc1)C(=O)Nc1ccc2ccccc2c1", "note": "[GPN, glycyl-L-phenylalanine 2-naphththylamide] (HELM PEPTIDE1{G.F.[c1ccc2cc(N[*:1])ccc2c1]}$$$$V2.0)", "values": [
      {"measurement": "decrease in spectral counts of mTOR proximal to APEX2-Gal8", "setting": "APEX2-Gal8", "value": "> 100", "unit": "fold"},
      {"measurement": "increase in MS signal intensity of peptide precursor ions of LAMTOR1/p18, SLC38A9 and RagA/B", "setting": "APEX2-Gal8", "value": "> 100", "unit": "fold"},
      {"measurement": "increase in spectral counts of SLC38A9 and RagA/B proximal to APEX2-Gal8", "setting": "APEX2-Gal8", "value": "> 100", "unit": "fold"},
      {"measurement": "association between Gal8 and LAMTOR2/p14", "setting": "Gal8", "value": "increased association"},
      {"measurement": "association between Gal8 and RagA", "setting": "Gal8", "value": "increased"},
      {"measurement": "levels of Raptor and mTOR in complexes with Gal8", "setting": "Gal8", "value": "reduced levels"},
      {"measurement": "ULK1 pS317 (activating AMPK phosphosite)", "setting": "AMPK; 100 μM GPN", "value": "increase"},
      {"measurement": "ULK1 pS757 (mTOR-dependent inactivating phosphosite)", "setting": "AMPK; 100 μM GPN", "value": "decreased"},
      {"measurement": "phosphorylation of S79 of acetyl-CoA carboxylase (ACC)", "setting": "AMPK; 100 μM GPN", "value": "elevated phosphorylation"},
      {"measurement": "AMPK activation (AMPKα T172 phosphorylation)", "setting": "AMPK; HEK293A, 100 μM GPN in full medium", "value": "activated"}
    ]}
  ]
}
